For data set [1], the target named is ATP-binding cassette sub-family C member 2 (Homo sapiens, UniProt Q92887). The data set is described as follows: Inhibition of human MRP2 overexpressed in Sf9 cell membrane vesicles assessed as uptake of [3H]-estradiol-17beta-D-glucuronide in presence of ATP and GSH measured after 20 mins by membrane vesicle transport assay.
Data set [2] concerns the target ATP-binding cassette sub-family C member 3 (Homo sapiens, UniProt O15438). Nature of the data set: Inhibition of human MRP3 overexpressed in Sf9 insect cell membrane vesicles assessed as uptake of [3H]-estradiol-17beta-D-glucuronide in presence of ATP and GSH measured after 10 mins by membrane vesicle transport assay. In kind it is ADME, cell-based.
The target in data set [3] is T1, ATP-binding cassette sub-family C member 4 (Homo sapiens, UniProt O15439).
T1 sequence (O15439 whole entry): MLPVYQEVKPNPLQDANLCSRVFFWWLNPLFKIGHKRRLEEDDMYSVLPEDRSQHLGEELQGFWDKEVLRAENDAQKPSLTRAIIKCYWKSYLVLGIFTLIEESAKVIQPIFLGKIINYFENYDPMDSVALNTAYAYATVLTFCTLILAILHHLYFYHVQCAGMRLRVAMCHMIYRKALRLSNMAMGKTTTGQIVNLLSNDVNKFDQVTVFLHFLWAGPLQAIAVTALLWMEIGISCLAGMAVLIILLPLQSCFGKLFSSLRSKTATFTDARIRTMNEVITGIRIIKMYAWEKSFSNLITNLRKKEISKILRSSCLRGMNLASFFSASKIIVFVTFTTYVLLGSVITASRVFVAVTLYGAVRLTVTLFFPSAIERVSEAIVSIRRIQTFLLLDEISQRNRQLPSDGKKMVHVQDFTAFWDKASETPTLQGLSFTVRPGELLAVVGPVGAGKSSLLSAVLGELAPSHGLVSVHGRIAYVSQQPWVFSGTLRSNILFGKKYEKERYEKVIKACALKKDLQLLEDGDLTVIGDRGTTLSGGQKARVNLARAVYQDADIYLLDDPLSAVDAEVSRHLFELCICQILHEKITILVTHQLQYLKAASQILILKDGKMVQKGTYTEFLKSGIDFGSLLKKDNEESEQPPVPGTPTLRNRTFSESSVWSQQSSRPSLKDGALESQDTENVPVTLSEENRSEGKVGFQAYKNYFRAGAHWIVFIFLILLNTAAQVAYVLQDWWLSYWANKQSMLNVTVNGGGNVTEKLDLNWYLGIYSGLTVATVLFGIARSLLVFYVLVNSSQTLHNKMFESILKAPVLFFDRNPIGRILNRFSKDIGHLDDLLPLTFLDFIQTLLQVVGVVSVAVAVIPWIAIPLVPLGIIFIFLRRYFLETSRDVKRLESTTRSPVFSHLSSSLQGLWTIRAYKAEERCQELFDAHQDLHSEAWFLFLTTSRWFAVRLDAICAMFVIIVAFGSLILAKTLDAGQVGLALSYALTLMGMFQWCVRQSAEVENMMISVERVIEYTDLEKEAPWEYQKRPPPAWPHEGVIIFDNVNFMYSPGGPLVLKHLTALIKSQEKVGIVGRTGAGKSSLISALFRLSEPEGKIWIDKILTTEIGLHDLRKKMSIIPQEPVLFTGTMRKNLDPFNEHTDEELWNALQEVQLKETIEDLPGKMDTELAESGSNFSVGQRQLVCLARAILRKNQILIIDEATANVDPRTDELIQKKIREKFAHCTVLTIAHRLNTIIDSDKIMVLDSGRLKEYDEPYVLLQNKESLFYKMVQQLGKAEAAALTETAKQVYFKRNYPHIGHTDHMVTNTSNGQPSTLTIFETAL
The data set is described as follows: Inhibition of human MRP4 overexpressed in Sf9 cell membrane vesicles assessed as uptake of [3H]-estradiol-17beta-D-glucuronide in presence of ATP and GSH measured after 20 mins by membrane vesicle transport assay. It counts as ADME, cell-based.

A short description of data set [4]: AUC in human at 300 to 900 mg, po QD after 24 hrs. The note with it: in vivo. In kind it is ADME, organism-based.
Data set [5] can be described thus: Drug concentration at steady state in human at 300 to 900 mg, po QD after 24 hrs. In kind it is ADME, organism-based. As to conditions: in vivo, read-out: Css.
Data set [6] can be described thus: Ratio of drug concentration at steady state in human at 300 to 900 mg, po QD after 24 hrs to IC50 for human BSEP overexpressed in Sf9 insect cells. In kind it is ADME, organism-based. The note with it: in vivo.
The nature of data set [7]: Ratio of drug concentration at steady state in human at 300 to 900 mg, po QD after 24 hrs to IC50 for human MRP2 overexpressed in Sf9 insect cells. It counts as ADME, organism-based. The note with it: in vivo.
Data set [8] can be described thus: Ratio of drug concentration at steady state in human at 300 to 900 mg, po QD after 24 hrs to IC50 for human MRP4 overexpressed in Sf9 insect cells. It counts as ADME, organism-based. As to conditions: in vivo.
The nature of data set [9]: AUC in human at 60 to 120 mg, po QD after 24 hrs. In kind it is ADME, organism-based. The note with it: in vivo.
The nature of data set [10]: Drug concentration at steady state in human at 60 to 120 mg, po QD after 24 hrs. It counts as ADME, organism-based. As to conditions: in vivo, read-out: Css.
Data set [11] is described as follows: Ratio of drug concentration at steady state in human at 60 to 120 mg, po QD after 24 hrs to IC50 for human BSEP overexpressed in Sf9 insect cells. As to conditions: in vivo. It counts as ADME, organism-based.
Data set [12] can be described thus: Ratio of drug concentration at steady state in human at 60 to 120 mg, po QD after 24 hrs to IC50 for human MRP4 overexpressed in Sf9 insect cells. As to conditions: in vivo. It counts as ADME, organism-based.
Data set [13] is described as follows: AUC in human at 15 mg, po QD for 14 days after 24 hrs. In kind it is ADME, organism-based. More on the design: dose 15 mg, time < 24 hr, route oral. As to conditions: in vivo.
Data set [14] in a line: Drug concentration at steady state in human at 15 mg, po QD for 14 days after 24 hrs. It counts as ADME, organism-based. The note with it: in vivo, read-out: Css.
A short description of data set [15]: Ratio of drug concentration at steady state in human at 15 mg, po QD for 14 days after 24 hrs to IC50 for human BSEP overexpressed in Sf9 insect cells. It counts as ADME, organism-based. As to conditions: in vivo.
Data set [16] can be described thus: AUC in human at 30 to 60 mg, po QD after 24 hrs. It counts as ADME, organism-based. As to conditions: in vivo.
The target in data set [17] is Bile salt export pump (Homo sapiens, UniProt O95342). Nature of the data set: Inhibition of human BSEP overexpressed in Sf9 cell membrane vesicles assessed as uptake of [3H]-taurocholate in presence of ATP measured after 15 to 20 mins by membrane vesicle transport assay. It counts as ADME, cell-based.
Bile salt export pump, sequence (O95342 whole entry): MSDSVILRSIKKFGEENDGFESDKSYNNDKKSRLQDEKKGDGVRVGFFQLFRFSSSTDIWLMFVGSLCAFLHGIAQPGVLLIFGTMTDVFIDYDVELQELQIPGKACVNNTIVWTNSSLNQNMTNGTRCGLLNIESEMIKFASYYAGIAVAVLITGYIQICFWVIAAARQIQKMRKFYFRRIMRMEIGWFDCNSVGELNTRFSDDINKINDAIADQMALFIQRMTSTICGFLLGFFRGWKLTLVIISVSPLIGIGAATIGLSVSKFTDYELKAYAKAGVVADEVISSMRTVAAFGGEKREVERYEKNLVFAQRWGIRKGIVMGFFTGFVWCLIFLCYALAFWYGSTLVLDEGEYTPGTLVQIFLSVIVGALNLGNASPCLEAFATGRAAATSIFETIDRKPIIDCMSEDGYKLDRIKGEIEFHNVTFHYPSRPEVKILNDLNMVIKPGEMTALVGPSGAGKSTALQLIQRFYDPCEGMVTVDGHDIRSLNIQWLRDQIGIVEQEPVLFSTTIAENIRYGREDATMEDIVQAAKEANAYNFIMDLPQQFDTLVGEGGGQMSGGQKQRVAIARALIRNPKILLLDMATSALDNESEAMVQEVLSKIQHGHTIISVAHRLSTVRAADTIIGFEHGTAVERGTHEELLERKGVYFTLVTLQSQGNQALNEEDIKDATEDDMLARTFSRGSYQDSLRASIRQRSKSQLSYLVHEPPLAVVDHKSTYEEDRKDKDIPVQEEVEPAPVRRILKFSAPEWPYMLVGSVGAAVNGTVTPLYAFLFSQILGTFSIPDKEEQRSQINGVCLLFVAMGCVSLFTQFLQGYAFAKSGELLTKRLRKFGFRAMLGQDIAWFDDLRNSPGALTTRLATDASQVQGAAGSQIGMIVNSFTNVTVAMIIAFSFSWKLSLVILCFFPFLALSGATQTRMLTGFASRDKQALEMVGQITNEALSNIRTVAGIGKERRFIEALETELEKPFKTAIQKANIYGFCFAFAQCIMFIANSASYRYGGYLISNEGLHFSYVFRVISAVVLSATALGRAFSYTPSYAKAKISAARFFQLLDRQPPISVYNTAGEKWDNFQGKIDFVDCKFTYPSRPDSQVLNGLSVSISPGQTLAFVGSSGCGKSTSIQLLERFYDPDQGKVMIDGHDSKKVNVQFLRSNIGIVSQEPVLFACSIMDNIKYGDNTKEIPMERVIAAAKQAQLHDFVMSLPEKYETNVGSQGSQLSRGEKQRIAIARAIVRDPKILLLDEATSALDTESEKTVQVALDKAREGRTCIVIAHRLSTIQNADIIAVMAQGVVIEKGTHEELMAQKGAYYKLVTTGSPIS
A short description of data set [18]: AUC in human at 1 to 16 mg or 4 to 8 mg, po QD extended-release tablets after 24 hrs. It counts as ADME, organism-based. As to conditions: in vivo.
Data set [19] in a line: Ratio of drug concentration at steady state in human at 1 to 16 mg or 4 to 8 mg, po QD extended-release tablets after 24 hrs to IC50 for human MRP4 overexpressed in Sf9 insect cells. It counts as ADME, organism-based. As to conditions: in vivo.
The subject of data set [20] is Homo sapiens. Nature of the data set: Drug concentration at steady state in human at 1 to 16 mg or 4 to 8 mg, po QD extended-release tablets after 24 hrs. In kind it is ADME, organism-based. The note with it: in vivo.
A short description of data set [21]: Ratio of drug concentration at steady state in human at 1 to 16 mg or 4 to 8 mg, po QD extended-release tablets after 24 hrs to IC50 for human BSEP overexpressed in Sf9 insect cells. The note with it: in vivo. In kind it is ADME, organism-based.

Structures are written as SMILES.

ATP-binding cassette sub-family C member 3, sequence (O15438 whole entry): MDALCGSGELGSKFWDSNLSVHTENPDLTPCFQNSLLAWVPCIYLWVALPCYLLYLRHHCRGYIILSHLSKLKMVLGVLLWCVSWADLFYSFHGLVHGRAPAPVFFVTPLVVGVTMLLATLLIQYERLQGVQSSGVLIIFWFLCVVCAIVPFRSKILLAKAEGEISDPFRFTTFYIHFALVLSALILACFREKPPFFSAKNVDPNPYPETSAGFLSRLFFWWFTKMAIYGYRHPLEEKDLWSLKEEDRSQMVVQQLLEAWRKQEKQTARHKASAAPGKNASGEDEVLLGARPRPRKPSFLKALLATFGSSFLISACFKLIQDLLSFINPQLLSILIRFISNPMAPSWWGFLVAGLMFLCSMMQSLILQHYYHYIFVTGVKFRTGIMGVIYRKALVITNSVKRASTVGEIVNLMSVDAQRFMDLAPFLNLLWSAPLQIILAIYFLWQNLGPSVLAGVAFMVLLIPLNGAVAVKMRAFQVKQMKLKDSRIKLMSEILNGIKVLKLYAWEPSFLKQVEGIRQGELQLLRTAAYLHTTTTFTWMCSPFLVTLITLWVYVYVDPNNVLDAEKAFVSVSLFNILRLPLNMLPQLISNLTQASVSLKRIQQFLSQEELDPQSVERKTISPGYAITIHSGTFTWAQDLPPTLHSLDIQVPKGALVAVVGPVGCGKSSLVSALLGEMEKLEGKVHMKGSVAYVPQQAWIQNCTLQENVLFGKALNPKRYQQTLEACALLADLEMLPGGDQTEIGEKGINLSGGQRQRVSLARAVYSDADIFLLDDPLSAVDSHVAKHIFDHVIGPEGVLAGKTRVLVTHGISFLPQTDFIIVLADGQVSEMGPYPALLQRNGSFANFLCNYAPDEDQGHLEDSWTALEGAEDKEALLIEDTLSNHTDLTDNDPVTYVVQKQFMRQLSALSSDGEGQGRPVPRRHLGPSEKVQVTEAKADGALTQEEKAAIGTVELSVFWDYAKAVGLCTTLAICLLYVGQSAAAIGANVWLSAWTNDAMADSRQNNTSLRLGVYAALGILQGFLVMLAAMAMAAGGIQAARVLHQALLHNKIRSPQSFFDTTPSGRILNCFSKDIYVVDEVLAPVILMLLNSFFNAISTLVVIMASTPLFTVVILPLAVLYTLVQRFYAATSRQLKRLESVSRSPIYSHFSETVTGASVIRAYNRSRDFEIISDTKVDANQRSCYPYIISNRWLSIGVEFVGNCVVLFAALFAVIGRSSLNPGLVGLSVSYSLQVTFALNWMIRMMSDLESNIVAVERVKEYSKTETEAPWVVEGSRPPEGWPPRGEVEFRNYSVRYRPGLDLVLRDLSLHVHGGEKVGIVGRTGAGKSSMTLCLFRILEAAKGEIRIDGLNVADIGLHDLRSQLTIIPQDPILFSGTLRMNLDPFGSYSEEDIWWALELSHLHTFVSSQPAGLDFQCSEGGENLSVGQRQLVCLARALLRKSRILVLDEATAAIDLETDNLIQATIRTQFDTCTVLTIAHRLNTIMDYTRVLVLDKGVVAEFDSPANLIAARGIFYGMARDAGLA
ATP-binding cassette sub-family C member 2, sequence (Q92887 whole entry): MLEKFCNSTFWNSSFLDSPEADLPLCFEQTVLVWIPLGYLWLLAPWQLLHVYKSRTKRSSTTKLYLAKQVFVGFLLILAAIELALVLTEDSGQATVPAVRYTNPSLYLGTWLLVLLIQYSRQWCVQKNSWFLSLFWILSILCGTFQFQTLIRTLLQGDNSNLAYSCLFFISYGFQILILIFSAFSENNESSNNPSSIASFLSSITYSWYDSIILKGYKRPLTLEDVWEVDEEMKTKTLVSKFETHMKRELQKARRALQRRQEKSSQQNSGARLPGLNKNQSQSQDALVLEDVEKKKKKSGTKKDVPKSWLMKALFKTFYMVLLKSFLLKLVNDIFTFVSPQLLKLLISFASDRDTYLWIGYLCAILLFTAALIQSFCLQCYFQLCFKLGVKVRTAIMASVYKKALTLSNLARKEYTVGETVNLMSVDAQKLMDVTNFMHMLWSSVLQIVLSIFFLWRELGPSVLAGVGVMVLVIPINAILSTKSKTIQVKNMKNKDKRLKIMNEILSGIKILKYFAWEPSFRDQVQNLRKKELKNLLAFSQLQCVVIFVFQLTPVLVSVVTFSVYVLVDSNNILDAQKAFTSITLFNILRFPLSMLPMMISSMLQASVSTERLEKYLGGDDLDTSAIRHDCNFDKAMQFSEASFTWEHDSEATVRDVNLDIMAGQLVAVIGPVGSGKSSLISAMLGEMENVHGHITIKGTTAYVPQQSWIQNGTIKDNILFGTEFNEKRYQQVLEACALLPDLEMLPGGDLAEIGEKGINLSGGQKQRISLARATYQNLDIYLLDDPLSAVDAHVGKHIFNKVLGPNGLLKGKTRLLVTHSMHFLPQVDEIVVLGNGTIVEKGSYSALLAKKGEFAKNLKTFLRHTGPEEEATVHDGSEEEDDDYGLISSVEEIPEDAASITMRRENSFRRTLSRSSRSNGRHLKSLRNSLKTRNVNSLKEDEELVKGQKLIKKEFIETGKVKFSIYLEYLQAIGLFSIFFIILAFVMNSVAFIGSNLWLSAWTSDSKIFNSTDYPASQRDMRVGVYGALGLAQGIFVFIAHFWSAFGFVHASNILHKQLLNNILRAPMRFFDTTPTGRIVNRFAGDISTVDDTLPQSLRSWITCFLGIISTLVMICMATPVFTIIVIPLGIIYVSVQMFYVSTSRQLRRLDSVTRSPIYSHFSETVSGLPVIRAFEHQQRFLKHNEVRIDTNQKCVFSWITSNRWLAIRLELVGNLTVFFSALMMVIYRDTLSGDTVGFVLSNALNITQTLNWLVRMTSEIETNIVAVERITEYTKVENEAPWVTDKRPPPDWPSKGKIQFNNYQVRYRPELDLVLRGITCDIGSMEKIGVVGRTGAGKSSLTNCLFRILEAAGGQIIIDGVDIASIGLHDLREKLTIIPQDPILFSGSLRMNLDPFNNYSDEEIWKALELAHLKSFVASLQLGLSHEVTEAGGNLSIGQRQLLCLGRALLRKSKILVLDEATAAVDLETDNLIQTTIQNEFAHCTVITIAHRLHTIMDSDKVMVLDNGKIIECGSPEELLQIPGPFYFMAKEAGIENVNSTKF

Turning to `CO[C@H]1/C=C/O[C@@]2(C)Oc3c(C)c(O)c4c(c3C2=O)C2=NC3(CCN(CC(C)C)CC3)NC2=C(NC(=O)/C(C)=C\C=C\[C@H](C)[C@H](O)[C@@H](C)[C@@H](O)[C@@H](C)[C@H](OC(C)=O)[C@@H]1C)C4=O` [RIFABUTIN], the IC50 (as a rule, the concentration that gives 50% inhibition) was 49.8 µM in data set [1], greater than 133 µM in data set [2] and 15.9 µM in [3]. Also, the AUC (commonly concentration integrated over time) at 24 h in [4] was determined as 2.43 µM·h. The concentration at 24 h in [5] was 101 nM. The results for the Ratio in data set [6], in data set [7] and in data set [8] were 0.004, 0.002 and 0.006, respectively.
As to `COC(=O)C1=C(C)NC(C)=C(C(=O)OCCN(C)Cc2ccccc2)C1c1cccc([N+](=O)[O-])c1` (stereo not drawn) [NICARDIPINE], the results for the IC50 in data set [1], in data set [2] and in [3] were greater than 133 µM, greater than 133 µM and 88 µM, respectively. The compound further yielded an exposure (AUC) at 24 h in data set [9] of 0.72 µM·h. In addition, in data set [10], the concentration at 24 h is 30 nM. The Ratio in [11] is on record as 0.004; in data set [12], 0.
In the case of `COc1cc(NC(C)CCCN)c2ncccc2c1` (stereo not drawn) [PRIMAQUINE], the half-inhibitory concentration (IC50) in data set [1], in data set [2] and in data set [3] was greater than 133 µM in each case. Also, in [13], the AUC at 24 h worked out at 1.71 µM·h. Moreover, the concentration at 24 h in data set [14] came out at 71 nM. Besides, the Ratio in data set [15] is listed as 0.002.
For `COC(=O)C1=C(C)NC(C)=C(C(=O)OC)C1c1ccccc1[N+](=O)[O-]` [NIFEDIPINE], the IC50 in [1] is greater than 133 µM; in [2], greater than 133 µM; in [3], 16.6 µM. In data set [16], this compound yielded an area under the curve (AUC) at 24 h of 3.48 µM·h.
As for `COc1cc2nc(N3CCN(C(=O)C4COc5ccccc5O4)CC3)nc(N)c2cc1OC.CS(=O)(=O)O` (stereo not drawn) [DOXAZOSIN MESYLATE], the IC50 in data set [17] was 45 µM; in [1], greater than 133 µM; in data set [2], greater than 133 µM; in [3] it was 8 µM. The same compound showed an AUC at 24 h in data set [18] of 1.64 µM·h. Besides, the Ratio in data set [19] came out at 0.009; in [21] it was 0.002. Further, in data set [20], the Css was determined as 68 nM.

The values above are taken from ChEMBL document CHEMBL4028801, “A multifactorial approach to hepatobiliary transporter assessment enables improved therapeutic compound development” (Toxicol Sci, 2013).
